Type in all cases: cell-based
One assay concerns the target T1, hGIPR (Homo sapiens, UniProt P48546).
T1 construct: expressed in transfected cells
T1 sequence (P48546 22-466): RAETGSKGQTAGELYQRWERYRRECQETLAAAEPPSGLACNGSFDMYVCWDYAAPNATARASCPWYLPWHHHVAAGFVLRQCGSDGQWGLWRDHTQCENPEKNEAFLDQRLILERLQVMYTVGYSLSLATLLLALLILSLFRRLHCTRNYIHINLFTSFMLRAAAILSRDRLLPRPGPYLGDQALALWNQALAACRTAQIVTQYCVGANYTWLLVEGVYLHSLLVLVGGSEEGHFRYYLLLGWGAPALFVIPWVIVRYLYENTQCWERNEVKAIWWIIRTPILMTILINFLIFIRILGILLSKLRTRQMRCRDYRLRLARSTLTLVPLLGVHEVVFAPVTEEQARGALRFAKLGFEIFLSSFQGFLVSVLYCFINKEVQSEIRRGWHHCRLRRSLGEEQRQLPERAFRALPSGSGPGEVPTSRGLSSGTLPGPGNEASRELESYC
In words: Functional cAMP formation (HTRF) in HEK-293 clonal cells expressing hGIPR, 0.1% bovine casein, without or with 1.0% human serum albumin. As to conditions: for Emax: read-out: hGIPR Emax, % ± SEM; for EC50: geometric mean, read-out: hGIPR EC50, nM (SEM, n). The method in brief: (§1)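 Cells were stimulated with peptide for 30 min at 37° C, then lysed in buffer carrying cAMP-d2 and anti-cAMP Eu3+-cryptate for a competitive HTRF read after at least 60 min at room temperature. The 665/620 nm ratio was converted to nM cAMP against a standard curve.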
(cAMP levels reflect the balance of adenylyl cyclase and phosphodiesterase activity.)

The next assay has as its target T2, hGCGR (Homo sapiens, UniProt P47871).
T2 construct: expressed in transfected cells
The experiment in a line: Functional cAMP formation (HTRF) in HEK-293 clonal cells expressing hGCGR, 0.1% bovine casein, without or with 1.0% human serum albumin. To be noted: geometric mean, read-out: hGCGR EC50, nM (SEM, n). The method in brief: as §1

For the next assay, the target named is hGLP-1R (Homo sapiens, UniProt P43220). In words: Functional cAMP formation (HTRF) in HEK-293 clonal cells expressing hGLP-1R, 0.1% bovine casein, without or with 1.0% human serum albumin. The arrangement: expressed in transfected cells. To be noted: for Emax: read-out: hGLP-1R Emax, % ± SEM; for EC50: geometric mean, read-out: hGLP-1R EC50, nM (SEM, n). The procedure, abridged: as §1

Setting [1] is: HEK293, 0.1% bovine casein and 1.0% human serum albumin, 37° C., percent of maximal response to GIP(1-42)NH2.
Where [2] appears, read: HEK293, percent of maximal response to GIP(1-42)NH2, 37° C., 0.1% bovine casein, arithmetic mean.
Where [3] appears, read: cAMP, incubated at 37° C., 0.1% bovine casein (no human serum albumin).
[4] abbreviates: 0.1% bovine casein and 1.0% human serum albumin, 37° C.
[5] abbreviates: HEK293, percent of maximal response to GLP-1(7-36)NH2, 37° C., 0.1% bovine casein, arithmetic mean.
[6] abbreviates: HEK293, 0.1% bovine casein and 1.0% human serum albumin, 37° C., percent of maximal response to GLP-1(7-36)NH2.

Structures are written as SMILES. Where two headings read alike, the source gives them in different places. *1 amine or outer side, *2 acyl side, *3 side chain or, on linkers, in order; H or OH if unused. Where a SMILES comes first, the peptide text is derived from it. Side-chain parts run from the residue outwards. [ ]: non-standard residue; d: D form. The star is where a group is joined. αMePhe(2-F) = C[C@](N)(Cc1ccccc1F)C(=O)O; γGlu = O=C(O)[C@H](CCC(=O)[*:2])N[*:1]; C14 diacid = O=C(O)CCCCCCCCCCCCC(=O)*; αMeY = C[C@](N)(Cc1ccc(O)cc1)C(=O)O; 4Pal = N[C@@H](Cc1ccncc1)C(=O)O; αMeL = CC(C)C[C@](C)(N)C(=O)O; Orn = NCCC[C@H](N)C(=O)O; AEEA = NCCOCCOCC(=O)O; Aib = CC(C)(N)C(=O)O

Consider four molecules from patent publication US20230265151A1, “GIP/GLP1 CO-AGONIST COMPOUNDS” (priority 2020, published 2023).

T2 sequence (P47871 26-477): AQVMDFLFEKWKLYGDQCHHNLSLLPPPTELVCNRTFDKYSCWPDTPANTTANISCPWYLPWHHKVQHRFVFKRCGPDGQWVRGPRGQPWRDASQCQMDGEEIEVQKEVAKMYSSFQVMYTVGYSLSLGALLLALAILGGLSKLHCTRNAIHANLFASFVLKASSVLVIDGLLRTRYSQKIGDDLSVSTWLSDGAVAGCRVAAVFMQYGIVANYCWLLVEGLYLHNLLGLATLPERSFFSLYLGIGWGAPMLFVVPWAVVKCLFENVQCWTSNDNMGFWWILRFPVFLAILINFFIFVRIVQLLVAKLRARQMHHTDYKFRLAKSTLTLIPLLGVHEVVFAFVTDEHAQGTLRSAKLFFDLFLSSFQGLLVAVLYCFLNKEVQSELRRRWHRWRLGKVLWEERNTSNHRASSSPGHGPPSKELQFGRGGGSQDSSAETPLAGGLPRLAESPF
Sequence of hGLP-1R (P43220 24-463): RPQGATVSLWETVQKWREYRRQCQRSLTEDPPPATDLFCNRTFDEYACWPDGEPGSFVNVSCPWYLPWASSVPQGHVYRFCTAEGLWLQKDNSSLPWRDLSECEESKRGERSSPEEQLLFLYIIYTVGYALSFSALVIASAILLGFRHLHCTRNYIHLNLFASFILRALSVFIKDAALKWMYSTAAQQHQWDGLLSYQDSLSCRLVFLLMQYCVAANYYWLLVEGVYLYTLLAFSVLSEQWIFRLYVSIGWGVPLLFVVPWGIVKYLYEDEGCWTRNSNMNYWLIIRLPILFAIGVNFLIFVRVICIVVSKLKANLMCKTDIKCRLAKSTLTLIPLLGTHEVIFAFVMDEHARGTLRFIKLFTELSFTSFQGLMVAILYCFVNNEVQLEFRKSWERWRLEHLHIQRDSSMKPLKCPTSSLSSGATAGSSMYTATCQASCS

For `CC[C@H](C)[C@H](NC(=O)[C@H](CC(C)C)NC(=O)[C@](C)(Cc1ccc(O)cc1)NC(=O)[C@@H](CCC(=O)O)NC(=O)[C@@H](NC(=O)[C@H](Cc1ccccc1)NC(=O)[C@H](CCCCNC(=O)COCCOCCNC(=O)COCCOCCNC(=O)CC[C@H](NC(=O)CCCCCCCCCCCCC(=O)O)C(=O)O)NC(=O)C(C)(C)NC(=O)[C@H](CCC(N)=O)NC(=O)[C@H](C)NC(=O)[C@H](CCCCNC(=O)COCCOCCNC(=O)COCCOCCNC(=O)CC[C@H](NC(=O)CCCCCCCCCCCCC(=O)O)C(=O)O)NC(=O)[C@H](CCCN)NC(=O)[C@H](CC(=O)O)NC(=O)[C@H](CC(C)C)NC(=O)[C@](C)(CC(C)C)NC(=O)[C@@H](NC(=O)C(C)(C)NC(=O)[C@H](Cc1ccc(O)cc1)NC(=O)[C@H](CC(=O)O)NC(=O)[C@H](CO)NC(=O)[C@@H](NC(=O)[C@](C)(Cc1ccccc1F)NC(=O)[C@@H](NC(=O)CNC(=O)[C@H](CCC(=O)O)NC(=O)C(C)(C)NC(=O)[C@@H](N)Cc1ccc(O)cc1)[C@@H](C)O)[C@@H](C)O)[C@@H](C)CC)[C@@H](C)CC)C(=O)N[C@@H](CCC(=O)O)C(=O)NCC(=O)NCC(=O)N1CCC[C@H]1C(=O)N[C@@H](CO)C(=O)N[C@@H](CO)C(=O)NCC(=O)N[C@@H](C)C(=O)N1CCC[C@H]1C(=O)N1CCC[C@H]1C(=O)N1CCC[C@H]1C(=O)N[C@@H](CO)C(N)=O` [Example 230], the Emax (in general, the size of the effect at its maximum, as opposed to the concentration needed) at hGIPR (setting [1]) worked out at 85.8%; on hGIPR (setting [2]), 105%; at hGLP-1R (setting [5]), 90.3%. Moreover, the EC50 (usually the concentration needed to bring the measured effect to its halfway point) is 0.0199 nM on hGIPR (setting [3]), more than 9950 nM on hGCGR (setting [4]), more than 9950 nM on hGCGR (setting [3]) and 0.726 nM on hGLP-1R (setting [3]).
For the molecule `CC[C@H](C)[C@H](NC(=O)[C@H](CC(C)C)NC(=O)[C@](C)(Cc1ccc(O)cc1)NC(=O)[C@@H](CCC(=O)O)NC(=O)[C@@H](NC(=O)[C@H](Cc1ccccc1)NC(=O)[C@H](CCC(=O)O)NC(=O)C(C)(C)NC(=O)[C@H](CCC(N)=O)NC(=O)[C@H](C)NC(=O)[C@H](CCCCNC(=O)COCCOCCNC(=O)COCCOCCNC(=O)CC[C@H](NC(=O)CCCCCCCCCCCCC(=O)O)C(=O)O)NC(=O)[C@H](CCCN)NC(=O)[C@H](CC(=O)O)NC(=O)[C@H](CC(C)C)NC(=O)[C@](C)(CC(C)C)NC(=O)[C@@H](NC(=O)[C@H](CO)NC(=O)[C@H](Cc1ccncc1)NC(=O)[C@H](CC(=O)O)NC(=O)[C@H](CO)NC(=O)[C@@H](NC(=O)[C@](C)(Cc1ccccc1F)NC(=O)[C@@H](NC(=O)CNC(=O)[C@H](CCC(=O)O)NC(=O)C(C)(C)NC(=O)[C@@H](N)Cc1ccc(O)cc1)[C@@H](C)O)[C@@H](C)O)[C@@H](C)CC)[C@@H](C)CC)C(=O)N[C@@H](CCC(=O)O)C(=O)NCC(=O)NCC(=O)N[C@@H](CCCCNC(=O)COCCOCCNC(=O)COCCOCCNC(=O)CC[C@H](NC(=O)CCCCCCCCCCCCC(=O)O)C(=O)O)C(N)=O` [Example 184] (H-Y[Aib]EGT[αMePhe(2-F)]TSD[4Pal]SI[αMeL]LD[Orn]K([AEEA-AEEA-γGlu-C14 diacid])AQ[Aib]EFI[dE][αMeY]LIEGGK([AEEA-AEEA-γGlu-C14 diacid])-NH2), the 50% effective concentration (EC50) on hGIPR (setting [4]) was 2.46 nM; on hGIPR (setting [3]) it was 0.0354 nM; at hGCGR (setting [4]), more than 9950 nM; on hGCGR (setting [3]), more than 9950 nM; at hGLP-1R (setting [4]), 119 nM; at hGLP-1R (setting [3]), 1.82 nM. Moreover, the Emax worked out at 81.2% at hGIPR (setting [1]), 95.2 ± 1.13% on hGIPR (setting [2]), 87.8% at hGLP-1R (setting [6]) and 96.8 ± 12% at hGLP-1R (setting [5]).
Take `CCCCCCCCCCCCCCCC(=O)N[C@@H](CCC(=O)NCCOCCOCC(=O)NCCOCCOCC(=O)NCCCC[C@H](NC(=O)[C@H](CCCN)NC(=O)[C@H](CC(=O)O)NC(=O)[C@H](CC(C)C)NC(=O)[C@](C)(CC(C)C)NC(=O)[C@@H](NC(=O)[C@H](CO)NC(=O)[C@H](Cc1ccncc1)NC(=O)[C@H](CC(=O)O)NC(=O)[C@H](CO)NC(=O)[C@@H](NC(=O)[C@](C)(Cc1ccccc1F)NC(=O)[C@@H](NC(=O)CNC(=O)[C@H](CCC(=O)O)NC(=O)C(C)(C)NC(=O)[C@@H](N)Cc1ccc(O)cc1)[C@@H](C)O)[C@@H](C)O)[C@@H](C)CC)C(=O)N[C@@H](C)C(=O)N[C@@H](CCC(N)=O)C(=O)NC(C)(C)C(=O)N[C@@H](CCC(=O)O)C(=O)N[C@@H](Cc1ccccc1)C(=O)N[C@H](C(=O)N[C@H](CCC(=O)O)C(=O)N[C@@H](CCCCNC(=O)COCCOCCNC(=O)COCCOCCNC(=O)CC[C@H](NC(=O)CCCCCCCCCCCCCCC)C(=O)O)C(=O)N[C@@H](CC(C)C)C(=O)N[C@H](C(=O)N[C@@H](CCC(=O)O)C(=O)NCC(=O)NCC(=O)N1CCC[C@H]1C(=O)N[C@@H](CO)C(=O)N[C@@H](CO)C(=O)NCC(=O)N[C@@H](C)C(=O)N1CCC[C@H]1C(=O)N1CCC[C@H]1C(=O)N1CCC[C@H]1C(=O)N[C@@H](CO)C(N)=O)[C@@H](C)CC)[C@@H](C)CC)C(=O)O` [Example 32]: the values for the Emax on hGIPR (setting [1]) and at hGLP-1R (setting [5]) were 98.2% and 119%, respectively. For the same molecule, the EC50 at hGCGR (setting [4]) was more than 9950 nM; at hGCGR (setting [3]), more than 9950 nM; at hGLP-1R (setting [4]) it was 1.73 nM; at hGLP-1R (setting [3]), 0.0063 nM.
Turning to `CC[C@H](C)[C@H](NC(=O)[C@H](CCCN)NC(=O)[C@H](CC(=O)O)NC(=O)[C@H](CC(C)C)NC(=O)[C@](C)(CC(C)C)NC(=O)[C@@H](NC(=O)[C@](C)(CO)NC(=O)[C@H](Cc1ccncc1)NC(=O)[C@H](CC(=O)O)NC(=O)[C@H](CO)NC(=O)[C@@H](NC(=O)[C@](C)(Cc1ccccc1F)NC(=O)[C@@H](NC(=O)CNC(=O)[C@H](CCC(=O)O)NC(=O)C(C)(C)NC(=O)[C@@H](N)Cc1ccc(O)cc1)[C@@H](C)O)[C@@H](C)O)[C@@H](C)CC)C(=O)N[C@@H](C)C(=O)N[C@@H](CCC(N)=O)C(=O)NC(C)(C)C(=O)N[C@@H](CCC(=O)O)C(=O)N[C@@H](Cc1ccccc1)C(=O)N[C@H](C(=O)N[C@@H](CCCCNC(=O)COCCOCCNC(=O)COCCOCCNC(=O)CC[C@H](NC(=O)CCCCCCCCCCCCC(=O)O)C(=O)O)C(=O)N[C@@](C)(Cc1ccc(O)cc1)C(=O)N[C@@H](CC(C)C)C(=O)N[C@H](C(=O)N[C@@H](CCCCNC(=O)COCCOCCNC(=O)COCCOCCNC(=O)CC[C@H](NC(=O)CCCCCCCCCCCCC(=O)O)C(=O)O)C(=O)NCC(=O)NCC(=O)N1CCC[C@H]1C(=O)N[C@@H](CO)C(=O)N[C@@H](CO)C(=O)NCC(=O)N[C@@H](C)C(=O)N1CCC[C@H]1C(=O)N1CCC[C@H]1C(=O)N1CCC[C@H]1C(=O)N[C@@H](CO)C(N)=O)[C@@H](C)CC)[C@@H](C)CC` [Example 216], the Emax on hGIPR (setting [1]) was 63.4%; at hGIPR (setting [2]), 88.5%; at hGLP-1R (setting [6]), 117%; at hGLP-1R (setting [5]), 93.6%. Further, the EC50 at hGIPR (setting [3]) is 0.0287 nM; at hGCGR (setting [4]) it was more than 9950 nM; on hGCGR (setting [3]), more than 9950 nM; on hGLP-1R (setting [4]), 32.3 nM; on hGLP-1R (setting [3]) it was 0.384 nM.
